Measured values published in PubChem BioAssay (NCI).
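Method: 48-hour compound exposure of cells in 96-well plates, five concentrations, linear interpolation of endpoints. TGI: concentration producing complete growth inhibition.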

Tests used:
Experiment in all cases: NCI anticancer screen, dose series, 48 h
OVCAR-8 ovarian = system: OVCAR-8 ovarian
MCF7 breast = system: MCF7 breast
MDA-MB-435 = system: MDA-MB-435
HCC-2998 colon = system: HCC-2998 colon
EKVX NSCLC = system: EKVX NSCLC
OVCAR-5 ovarian = system: OVCAR-5 ovarian
RPMI-8226 leukemia = system: RPMI-8226 leukemia
MDA-MB-231 breast = system: MDA-MB-231 breast
CAKI-1 renal = system: CAKI-1 renal
M14 melanoma = system: M14 melanoma
TK-10 renal = system: TK-10 renal
OVCAR-4 ovarian = system: OVCAR-4 ovarian
786-0 renal = system: 786-0 renal
NCI-H23 lung = system: NCI-H23 lung
NCI-H460 lung = system: NCI-H460 lung
NCI/ADR-RES ovarian = system: NCI/ADR-RES ovarian
HOP-62 NSCLC = system: HOP-62 NSCLC
KM12 colon = system: KM12 colon
HT29 colon = system: HT29 colon
SF-539 CNS = system: SF-539 CNS
PC-3 prostate = system: PC-3 prostate
LOX IMVI melanoma = system: LOX IMVI melanoma
ACHN renal = system: ACHN renal
SF-295 CNS = system: SF-295 CNS
SK-MEL-5 melanoma = system: SK-MEL-5 melanoma
HS 578T breast = system: HS 578T breast
SK-OV-3 ovarian = system: SK-OV-3 ovarian
MDA-N = system: MDA-N
HCT-15 colon = system: HCT-15 colon
UACC-257 melanoma = system: UACC-257 melanoma
HOP-92 NSCLC = system: HOP-92 NSCLC
SF-268 CNS = system: SF-268 CNS
T-47D breast = system: T-47D breast
NCI-H522 lung = system: NCI-H522 lung
A498 renal = system: A498 renal
MOLT-4 leukemia = system: MOLT-4 leukemia
HL-60(TB) leukemia = system: HL-60(TB) leukemia
NCI-H226 lung = system: NCI-H226 lung
SK-MEL-2 melanoma = system: SK-MEL-2 melanoma
IGROV1 ovarian = system: IGROV1 ovarian
RXF 393 renal = system: RXF 393 renal
HCT-116 colon = system: HCT-116 colon
SR leukemia = system: SR leukemia
CCRF-CEM leukemia = system: CCRF-CEM leukemia
DU-145 prostate = system: DU-145 prostate
U251 CNS = system: U251 CNS
UO-31 renal = system: UO-31 renal
OVCAR-3 ovarian = system: OVCAR-3 ovarian
K-562 leukemia = system: K-562 leukemia
SNB-75 CNS = system: SNB-75 CNS
SW-620 colon = system: SW-620 colon
SK-MEL-28 melanoma = system: SK-MEL-28 melanoma
UACC-62 melanoma = system: UACC-62 melanoma
MALME-3M melanoma = system: MALME-3M melanoma
SN12C renal = system: SN12C renal
A549 NSCLC = system: A549 NSCLC
BT-549 breast = system: BT-549 breast
COLO 205 colon = system: COLO 205 colon
SNB-19 CNS = system: SNB-19 CNS

Measured: TGI

O=C1/C(=C/c2ccccc2O)N=C(c2ccccc2)N1c1nc2ccccc2s1
95.1 µM: MDA-MB-231 breast
7.19 µM: SR leukemia
8.55 µM: MDA-N
38.5 µM: NCI-H23 lung
69.2 µM: MCF7 breast
77.5 µM: HCT-116 colon
58.4 µM: HS 578T breast
79.2 µM: UACC-257 melanoma
74 µM: HT29 colon
17.2 µM: NCI-H522 lung
60.7 µM: MOLT-4 leukemia
54.3 µM: OVCAR-3 ovarian
2.97 µM: HL-60(TB) leukemia
57 µM: SF-539 CNS
64.3 µM: ACHN renal
74.9 µM: TK-10 renal
44.9 µM: HCT-15 colon
72.6 µM: OVCAR-8 ovarian
23.3 µM: SK-MEL-5 melanoma
43.4 µM: SK-MEL-2 melanoma
28.7 µM: U251 CNS
56.4 µM: NCI-H460 lung
> 100 µM: MDA-MB-435 | EKVX NSCLC | OVCAR-5 ovarian | CAKI-1 renal | OVCAR-4 ovarian | HOP-62 NSCLC | KM12 colon | LOX IMVI melanoma | SK-OV-3 ovarian | HOP-92 NSCLC | T-47D breast | IGROV1 ovarian | RXF 393 renal | CCRF-CEM leukemia | DU-145 prostate | UO-31 renal | K-562 leukemia | SW-620 colon | SK-MEL-28 melanoma
43.8 µM: PC-3 prostate
87.1 µM: SF-295 CNS
53.8 µM: 786-0 renal
77.8 µM: NCI-H226 lung
49.3 µM: RPMI-8226 leukemia
85.6 µM: M14 melanoma
35.4 µM: HCC-2998 colon
52.1 µM: NCI/ADR-RES ovarian
53.1 µM: A498 renal
98.2 µM: SNB-75 CNS
77.7 µM: SF-268 CNS

CC1OC2(CC(OCc3ccccc3)C1OCc1ccccc1)OCCO2 (stereo not drawn)
90.5 µM: HCT-15 colon
74.4 µM: RXF 393 renal
> 100 µM: OVCAR-8 ovarian | MCF7 breast | MDA-MB-435 | HCC-2998 colon | EKVX NSCLC | OVCAR-5 ovarian | RPMI-8226 leukemia | MDA-MB-231 breast | CAKI-1 renal | UACC-62 melanoma | M14 melanoma | MALME-3M melanoma | TK-10 renal | OVCAR-4 ovarian | 786-0 renal | NCI-H23 lung | NCI-H460 lung | NCI/ADR-RES ovarian | HOP-62 NSCLC | KM12 colon | SF-539 CNS | PC-3 prostate | LOX IMVI melanoma | ACHN renal | SN12C renal | SF-295 CNS | SK-MEL-5 melanoma | HS 578T breast | SK-OV-3 ovarian | MDA-N | UACC-257 melanoma | HOP-92 NSCLC | SF-268 CNS | NCI-H522 lung | A498 renal | A549 NSCLC | NCI-H226 lung | SK-MEL-2 melanoma | BT-549 breast | IGROV1 ovarian | HCT-116 colon | COLO 205 colon | SR leukemia | CCRF-CEM leukemia | DU-145 prostate | U251 CNS | UO-31 renal | OVCAR-3 ovarian | SNB-19 CNS | K-562 leukemia | SW-620 colon | SK-MEL-28 melanoma
75.2 µM: MOLT-4 leukemia
58.2 µM: HT29 colon
48.9 µM: HL-60(TB) leukemia

Cc1ccc(-n2[nH]nc(C#N)c2=O)cc1
> 100 µM: OVCAR-8 ovarian | MCF7 breast | MDA-MB-435 | HCC-2998 colon | EKVX NSCLC | OVCAR-5 ovarian | RPMI-8226 leukemia | MDA-MB-231 breast | CAKI-1 renal | UACC-62 melanoma | M14 melanoma | MALME-3M melanoma | TK-10 renal | OVCAR-4 ovarian | 786-0 renal | NCI-H23 lung | NCI-H460 lung | NCI/ADR-RES ovarian | HOP-62 NSCLC | KM12 colon | HT29 colon | PC-3 prostate | ACHN renal | SN12C renal | SF-295 CNS | SK-MEL-5 melanoma | HS 578T breast | SK-OV-3 ovarian | MDA-N | HCT-15 colon | UACC-257 melanoma | SF-268 CNS | T-47D breast | NCI-H522 lung | MOLT-4 leukemia | HL-60(TB) leukemia | A549 NSCLC | NCI-H226 lung | SK-MEL-2 melanoma | BT-549 breast | IGROV1 ovarian | RXF 393 renal | HCT-116 colon | COLO 205 colon | CCRF-CEM leukemia | DU-145 prostate | U251 CNS | UO-31 renal | OVCAR-3 ovarian | SNB-19 CNS | K-562 leukemia | SNB-75 CNS | SW-620 colon | SK-MEL-28 melanoma
